Structures can show the parent of a compound that is named as a salt. Where two headings read alike, the source gives them in different places.
Tested on: sGFP::ATZ
Test: LOPAC library high-content primary screen for sGFP::ATZ accumulation in transgenic animals
Type: in vivo, C. elegans
Conditions: for Rank-score: 24 h
[1] = among compounds that decreased ATZ accumulation, based on relative rank-scores
[2] = average of compound rankings by ascending B-score from two independent screens, 50 μM, <110 decreased, >1225 increased sGFP::ATZ inclusions
[3] = among compounds that increased ATZ accumulation, based on relative rank-scores

SMILES	Overall rank-order [1]	Rank-score [2]	Overall rank-order	Rank-score (50 µM)	Overall rank-order [3]
C[N+]1(C)CCc2cc3c(cc2[C@H]1[C@@H]1OC(=O)c2c1ccc1c2OCO1)OCO3.[Br-] [(−)-bicuculline methbromide, 1(S), 9(R)]	26	89.5	–	–	–
O=S(=O)(c1cccc2cnccc12)N1CCNCC1 [HA-100]	10	52.5	–	–	–
CN[C@@H]1C[C@@H](c2ccc(Cl)c(Cl)c2)c2ccccc21 [indatraline hydrochloride]	28	93.0	–	–	–
CN1CCN(CCCN2c3ccccc3Sc3ccc(Cl)cc32)CC1 [prochlorperazine dimaleate]	31	103.5	–	–	–
Clc1ccccc1C(c1ccccc1)(c1ccccc1)n1ccnc1 [clotrimazole]	–	–	4	1255.0	–
Cl.N[C@@H](CCl)C(=O)O [beta-chloro-L-alanine hydrochloride]	16	61.5	–	–	–
N#CC(C#N)=C(N)/C(C#N)=C/c1ccc(O)cc1 [tyrphostin AG 112]	30	98.0	–	–	–
CC(C)C[C@H]1C(=O)N2CCC[C@H]2[C@]2(O)O[C@](NC(=O)[C@@H]3C=C4c5cccc6[nH]c(Br)c(c56)C[C@H]4N(C)C3)(C(C)C)C(=O)N12.CS(=O)(=O)O [(+)-bromocriptine methanesulfonate]	–	1240.5	–	–	8
COc1cc(OC)c(C=C2C(O)=Nc3ccccc32)c(OC)c1 [IC 261]	–	1253.5	–	–	5
CC1=C(C(=O)O)N2C(=O)[C@@H](NC(=O)[C@H](N)C3=CCC=CC3)[C@H]2SC1 [cephradine]	27	90.0	–	–	–
NCCc1c[nH]c2ccc(C(N)=O)cc12.O=C(O)/C=C\C(=O)O [5-carboxamidotryptamine maleate]	29	95.5	–	–	–
NCc1cc(=O)[nH]o1 [muscimol hydrobromide]	5	28.0	–	–	–
COc1[nH]c2ccc(F)cc2c1C(=O)OCC1CCN(CCNS(C)(=O)=O)CC1.NS(=O)(=O)O [GR 125487 sulfamate salt]	4	24.0	–	–	–
Cc1nc(-c2ccc(-c3ccc(C(=O)N4CCc5cc6c(cc54)C4(CCN(C)CC4)CO6)cc3)c(C)c2)no1 [SB 224289 hydrochloride]	–	1255.0	–	–	3
Cc1c(CC(C)(C)C(=O)O)n(Cc2ccc(Cl)cc2)c2ccc(F)cc12 [L-655,240]	3	10.5	–	–	–
O=C1Nc2ccccc2/C1=C1/Nc2ccccc2/C1=N\O [indirubin-3′-oxime]	25	85.0	–	–	–
CCCC(=O)NCCc1c2n(c3ccc(OC)cc13)Cc1ccccc1-2 [IIK7]	–	1236.5	–	–	11
COc1cccc(C(=O)NCCN2CCN(c3ccc(Cl)cc3)CC2)c1 [N-(2-[4-(4-Chlorophenyl)piperazin-1-yl]ethyl)-3-methoxybenzamide]	8	41.5	–	–	–
Cn1ccc2cc3c(cc21)CCN3C(=O)Nc1cccnc1 [SB 206553 hydrochloride]	11	56.0	–	–	–
CCN(CC)C(C)C(=O)N1c2ccccc2Sc2ccccc21.Cl (stereo not drawn) [10-(alpha-diethylaminopropionyl)-phenothiazine hydrochloride]	21	75.5	–	–	–
COc1ccc(C2CNC(=O)C2)cc1OC1CCCC1 (stereo not shown) [rolipram]	14	58.0	–	–	–
C#C[C@]1(O)CC[C@H]2[C@@H]3CCC4=Cc5nc6nc7ccccc7n6cc5C[C@]4(C)[C@H]3CC[C@@]21C [WIN 62,577]	–	1233.5	–	–	12
CCCCOC(=O)NS(=O)(=O)c1sc(CC(C)C)cc1-c1ccc(Cn2c(CC)nc3c(C)cc(C)nc32)cc1 [L-162,313]	–	1238.0	–	–	9

Source: patent US9820990B2, “Methods of treating disorders associated with protein aggregation” (University of Pittsburgh—Of the Commonwealth System of …, priority 2009, dated 2017)
